Columns and labels:
[1] = tested on: tumor cells; details: cited from earlier work
[2] = tested on: MKN-45 gastric carcinoma cells; assay: Induction of apoptosis in MKN-45 gastric carcinoma cells (percentages of apoptotic cells); format: cell-based, human; details: for induction of apoptosis, substance alone at the concentration of the combination: 0.15 ng/ml cyanidine alone, 0.08 μg/ml salicylic acid alone; for dependence of the induction of apoptosis on singlet oxygen: 2 mM histidine (singlet oxygen scavenger); for induction of apoptosis: 12 500 MKN-45 cells in 100 μl, 4-6.5 hours at 37° C.
Method: 12 500 MKN-45 cells in 100 μl (duplicate batches) were treated with the given concentrations of salicylic acid or remained free from salicylic acid. After 10 minutes the given concentrations of cyanidine were added.
12 500 MKN-45 cells in 100 μl (duplicate batches) were treated with 0.1 μg/ml salicylic acid or remained free from salicylic acid (control). […] After 6.5 hours the percentages of apoptotic cells were determined in duplicate batches.
12 500 MKN-45 cells in 100 μl (duplicate batches) either received no additive (control), 2 mM of the singlet oxygen scavenger histidine or 25 μM Caspase-8 inhibitor. […] After another 15 minutes cyanidine was added in the given concentrations. After 6.5 hours of incubation at 37° C. the percentages of apoptotic cells were determined.
12 500 MKN-45 cells in 100 μl (duplicate batches) either received no additive (control), 2 mM of the singlet oxygen scavenger histidine or 25 μM Caspase-8 inhibitor. […] After 6.5 hours incubation at 37° C. the percentage of apoptotic cells was determined. […]
12 500 MKN-45 cells in 100 μl medium were incubated with increasing concentrations of the given active ingredients, in the presence or absence of 0.1 μg/ml salicylic acid for 6 hours and then, the percentages of the apoptotic cells were determined (repeated determination).

[3] = target: T1, tumor cell catalase (Homo sapiens, UniProt P04040); assay: Catalase inhibition/inactivation in MKN-45 cells by challenge with exogenous peroxynitrite, NO donor or glucose oxidase; format: cell-based; set-up: endogenous in cells; host or cells: MKN-45 gastric carcinoma cells; details: 200 μM peroxynitrite; for catalase inhibition / sensitization to peroxynitrite with inhibited superoxide anion synthesis: 100 μM AEBSF; for requirement of singlet oxygen, superoxide anions and NO for catalase inhibition/inactivation: 2 mM histidine, 100 μM AEBSF or 2.4 mM L-NAME, MKN-45 (FIGS. 14, 15)
T1 sequence (P04040 2-527 limits assumed): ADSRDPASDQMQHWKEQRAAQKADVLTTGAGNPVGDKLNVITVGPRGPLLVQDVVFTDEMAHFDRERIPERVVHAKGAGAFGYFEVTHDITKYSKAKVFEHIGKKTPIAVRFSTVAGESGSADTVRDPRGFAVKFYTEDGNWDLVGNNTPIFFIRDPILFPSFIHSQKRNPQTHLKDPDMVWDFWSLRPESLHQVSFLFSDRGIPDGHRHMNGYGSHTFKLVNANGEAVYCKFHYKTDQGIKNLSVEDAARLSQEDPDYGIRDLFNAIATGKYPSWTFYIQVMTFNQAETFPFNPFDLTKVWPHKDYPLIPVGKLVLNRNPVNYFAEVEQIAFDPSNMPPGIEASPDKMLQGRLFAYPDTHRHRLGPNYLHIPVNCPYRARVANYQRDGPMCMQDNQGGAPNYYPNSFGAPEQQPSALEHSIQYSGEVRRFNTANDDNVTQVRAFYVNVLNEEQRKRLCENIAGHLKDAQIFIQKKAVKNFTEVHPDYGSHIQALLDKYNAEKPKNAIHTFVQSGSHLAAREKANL
Method: Direct catalase inhibition with relevance to the induction of apoptosis in tumor cells can be determined by pre-incubating tumor cells at first in the presence of the singlet oxygen scavenger histidine (2 mM) with the substance to be tested in increasing concentration (between 10 and 30 minutes at 37° C.) and subsequently adding peroxynitrite in the concentration range between 10 and 200 μM. The tumor cells are protected from the apoptosis-triggering effect of peroxynitrite by their membranous catalase. An inhibition of the catalase partially or completely cancels this protection and in the presence of peroxynitrite leads to the induction of apoptosis. The presence of 2 mM histidine ensures that the measured induction of apoptosis is not a singlet oxygen-mediated inactivation of the catalase by destruction of its active center. Alternatively, instead of addition of histidine inhibition of the NADPH oxidase by 100 μM AEBSF may take place. With prevented superoxide anion production also no singlet oxygen formation in the test system is possible.
4000 MKN-45 cells per 100 μl in […] were treated with increasing concentrations of monoclonal antibodies against catalase “Anti-KAT” or Anti-EGFR. After 15 minutes either 200 μM peroxynitrite (“PON”), 0.5 mM DEA-NONOate (rapidly decomposing NO donor), or 2 mU/ml glucose oxidase (GOX) that continuously generates hydrogen peroxide were added. After another two hours at 37° C. the percentages of apoptotic cells were determined in duplicate batches.
The principle of identification is based on the fact that tumor cells (here MKN-45 gastric carcinoma cells) are protected from the apoptosis-triggering effect of exogenously added peroxynitrite by their membranous catalase. Addition of catalase inhibitors sensitizes the cells to the effect of exogenous peroxynitrite.
The experiment was performed in analogy to that described in FIG. 9 except that instead of Anti-KAT a monoclonal antibody against SOD was used. The cells were tested in two different densities, namely 4000 and 12 500 cells per 100 μl. The challenge to test the activity of catalase was carried out with 200 μM peroxynitrite, or 0.5 mM DEA NONOate or 2 mU/ml GOX.
Subsequently, 200 μM or no peroxynitrite was added. After 1.5 hours the percentages of apoptotic cells were determined in duplicate batches.
Subsequently, 200 μM or no peroxynitrite was added. After 1 hour the percentages of apoptotic cells were determined in duplicate batches.
12 500 MKN-45 cells in 100 μl medium received 100 μM AEBSF or no additive. After 15 minutes the given concentrations of cyanidine were added and the batches were incubated for 15 minutes at 37° C. Subsequently, 200 μM peroxynitrite (PON) were added or the batches were not treated with peroxynitrite (control). After 1 hour the percentages of apoptotic cells were determined in duplicate batches.
12 500 MKN-45 cells received no addition (control), or 2 mM histidine, or 100 μM AEBSF or 2.4 mM L-NAME immediately before the addition of the given concentrations of salicylic acid (“0 min”) or 20 minutes after addition of salicyl. 20 minutes after the addition of salicylic acid 200 μM peroxynitrite (PON) were added to all batches except the control batches. After another 2 hours the percentages of apoptotic cells were determined in duplicates.

[4] = tested on: Gumbus lymphoma cells; assay: Induction of apoptosis in Gumbus lymphoma cells (percentages of apoptotic cells); format: cell-based, human; details: for dependence of the induction of apoptosis on singlet oxygen: 2 mM histidine (singlet oxygen scavenger); for dependence of the induction of apoptosis on singlet oxygen / ROS signal path of the induced apoptosis (inhibitor profile): Gumbus cells; for ROS signal path of the induced apoptosis (inhibitor profile): L-NAME, taurine, ABH
Method: 12 500 MKN-45 gastric carcinoma cells (A) or 25 000 Gumbus lymphoma cells (B) in 100 μl complete medium each either remained untreated (control) or received 2 mM histidine (singlet oxygen scavenger), 50 mM taurine (HOCl scavenger), or 2.4 mM L-NAME (NOS inhibitor). In Experiment A, additionally 10 mM mannitol (hydroxyl radical scavenger), 150 μM ABH (peroxidase inhibitor), 100 U/ml MnSOD (superoxide anion scavenger) and 25 μM FeTPPS (peroxynitrite decomposer) were used. Subsequently, the given concentrations of salicylic acid were added. After 5 hours (A) and 4 hours, respectively, of incubation at 37° C. the percentages of apoptotic cells were determined in duplicate batches according to the classical apoptosis features nuclear condensation, nuclear fragmentation, and membrane blebbing. Here, at least 200 cells were evaluated pre batch. […] Inhibitors: singlet oxygen scavenger histidine 2 mM; HOCl scavenger taurine 50 mM, NOS inhibitor L-NAME 2.4 mM, peroxidase inhibitor ABH 150 μM.

Row | Compound | synergism with cyanidine in the induction of apoptosis [2] | synergism with taxol in the induction of apoptosis [2] | inhibition of tumor cell catalase (sensitization to exogenous peroxynitrite) ([3]; MKN-45) | induction of apoptosis, substance alone at the concentration of the combination ([2]; MKN-45 (FIG. 16)) | dependence of the induction of apoptosis on singlet oxygen ([2]; substance alone, MKN-45) | induction of apoptosis ([2]; substance alone) | catalase inhibition / sensitization to peroxynitrite with inhibited superoxide anion synthesis ([3]; MKN-45) | requirement of singlet oxygen, superoxide anions and NO for catalase inhibition/inactivation [3] | dependence of the induction of apoptosis on singlet oxygen [4] | ROS signal path of the induced apoptosis (inhibitor profile) [4] | other results
1 | Nc1nc[nH]n1 [3-aminotriazole] | – | – | – | – | – | – | – | – | – | – | sensitivity of tumor cells for ROS signaling-mediated apoptosis (autocrine and by interaction with non-transformed cells) [1]: become sensitive for these two processes
2 | O=C1O[C@H]([C@@H](O)CO)C(O)=C1O [ascorbic acid] | Synergism is achieved | Synergism is achieved | directly inhibit catalase | – | – | – | – | – | – | – | –
3 | Oc1cc(O)c2cc(O)c(-c3ccc(O)c(O)c3)[o+]c2c1.[Cl-] [cyanidine, cyanidine chloride] | – | – | leads to a sensitization to peroxynitrite | remained ineffective | depends on singlet oxygen | concentration-dependent induction of apoptosis | do not exhibit sensitivity for peroxynitrite | requires singlet oxygen, superoxide anions and NO | – | – | induction of apoptosis by the combination with salicylic acid ([2]; 0.15 ng/ml cyanidine with 0.08 μg/ml salicylic acid, MKN-45 (FIG. 16)): maximum induction of apoptosis; dependence of the synergistic effect with salicylic acid on Caspase-8 ([2]; 0.1 μg/ml salicylic acid, 25 μM Caspase-8 inhibitor, MKN-45, 6.5 hours (FIGS. 18, 19)): independent of Caspase-8; dependence of the synergistic effect with salicylic acid on singlet oxygen ([2]; 0.1 μg/ml salicylic acid, 2 mM histidine, MKN-45, 6.5 hours (FIGS. 18, 19)): also based on the effect of singlet oxygen; synergistic effect with salicylic acid in the induction of apoptosis ([2]; 0.1 μg/ml salicylic acid, MKN-45, 6.5 hours (FIG. 17)): remarkable synergistic effect; EC50 ([2]; Homo sapiens, applied alone, MKN-45, 6 hours (FIG. 16), read-out: concentration at half-maximum value of induction of apoptosis): ~0.02 µg/mL; concentration at optimum of induction of apoptosis ([2]; applied alone, MKN-45, 6 hours (FIG. 16)): 0.3 µg/mL; synergistic effect with salicylic acid in the induction of apoptosis ([2]; given concentrations of salicylic acid, MKN-45, 6 hours (FIG. 16)): considerable synergistic effect; dependence of the induction of apoptosis on Caspase-8 ([2]; substance alone, 25 μM Caspase-8 inhibitor, MKN-45): depends on the activity of dead receptors (such as FAS) and the thus activated Caspase-8
4 | O=C(O)c1ccccc1O [salicylic acid] | Synergism is achieved | Synergism is achieved | inhibits the catalase of the tumor cells | remained ineffective | does not depend on singlet oxygen | induces ROS-dependent induction of apoptosis | independent of the superoxide anion synthesis | independent of superoxide anions, NO and singlet oxygen | does not depend on singlet oxygen | In the low concentration range of the salicylic acid preferably the NO/peroxynitrite signal path runs, with higher concentrations the HOCl path predominates | induction of apoptosis, alone at 0.1 μg/ml ([2]; 0.1 μg/ml, MKN-45 (FIG. 18)): ineffective in itself; ROS signal path of the induced apoptosis (inhibitor profile) ([2]; MKN-45, L-NAME, FeTPPS, taurine, ABH): In the low concentration range of the salicylic acid preferably the NO/peroxynitrite signal path runs, with higher concentrations the HOCl path predominates; concentration up to which almost no effect on apoptosis is shown ([2]; administered alone, MKN-45, 6 hours (FIG. 16)): up to 0.32 μg/ml; catalase inactivation, alone at the chosen concentration ([3]; 6.25 ng/ml alone, MKN-45 (FIG. 21)): almost no catalase inactivation; induction of apoptosis ([4]; substance alone, 25 000 Gumbus lymphoma cells in 100 μl, 4 hours at 37° C.): induces ROS-dependent induction of apoptosis
5 | CC(=O)O[C@H]1C(=O)[C@@]2(C)[C@H]([C@H](OC(=O)c3ccccc3)[C@]3(O)C[C@H](OC(=O)[C@H](O)[C@@H](NC(=O)c4ccccc4)c4ccccc4)C(C)=C1C3(C)C)[C@]1(OC(C)=O)CO[C@@H]1C[C@@H]2O [taxol] | – | – | – | – | depends on singlet oxygen | – | – | – | caused by a fast singlet oxygen-dependent step that inactivates catalase within the first hour | at low concentrations of taxol is via the NO/peroxynitrite path, at higher concentrations via the HOCl path | concentration up to which a necessary involvement of Caspase-8 can be seen ([2]; alone, 25 μM Caspase-8 inhibitor, MKN-45, 6.5 hours (FIG. 19)): up to 370 ng/ml; synergistic effect with salicylic acid on catalase inactivation ([3]; 6.25 ng/ml salicylic acid, MKN-45, 1.5 hours (FIG. 21)): synergistic effect on the catalase inactivation

Reference: patent publication US9801832B2, “Pharmaceutical composition having synergistic action of direct catalase inhibitors and modulators of no metabolism or of extracellular superoxide anion production which lead to catalase destruction” (Universitaetsklinikum Freiburg, priority 2012, dated 2017)
